Laboratory results taken from publication PMC9344054, “Studies on Chemical Characterization of Ginkgo Amillaria Oral Solution and Its Drug–Drug Interaction With Piceatannol 3′-O-β-D-Glucopyranoside for Injection” (Frontiers in Pharmacology, 2022).

Legend:
UGT1A1 = test: Metabolism of PG based on UGTs, rat liver microsomes with inhibitor pazopanib; assay type: in vitro ADME; settings: PG 10 μmol L−1, pazopanib 50 μmol L−1, p > 0.05
Experimental: (§1) The incubation mixtures consisted of 1 mg mL^−1 of rat liver microsomes, 1 mmol L^−1 of UDPGA and 10 μmol L^−1 of PG, tris-HCl (pH = 7.4) and inhibitor (pazopanib (50 μmol L^−1)), niflumic acid (10 μmol L^−1), and fluconazole (50 μmol L^−1). The incubation system was the same as that in “2.4.1.,” whereas polydatin (20 μg mL^−1) was selected as the IS. Detection and analysis conditions based on UPLC-QQQ-MS were the same as those in “2.4.2.” The MRM transitions, cone voltage, and collision voltage of the target compounds and IS are shown in Supplementary Table S1.

[1] = rats, 2020, cited from earlier work
UGT1A9 = test: Metabolism of PG based on UGTs, rat liver microsomes with inhibitor niflumic acid; assay type: in vitro ADME; settings: PG 10 μmol L−1, niflumic acid 10 μmol L−1, p < 0.0001
Experimental: as §1

UGT2B7 = test: Metabolism of PG based on UGTs, rat liver microsomes with inhibitor fluconazole; assay type: in vitro ADME; settings: PG 10 μmol L−1, fluconazole 50 μmol L−1, p > 0.05
Experimental: as §1

[2] = Pharmacokinetic study of PGI alone and after repeated GAO in rats; assay type: in vivo, rat; settings: for clearance / AUC(0-inf) / AUC(0-t) / half-life: male, SD, rat, plasma, iv, 9 mg/kg, n = 8; for clearance: CL
Experimental: A total of 100 μl of rat plasma sample and 10 μl of polydatin solution (IS) were mixed with 400 μl of ice acetonitrile; the mixture was vortexed for 3 min and centrifuged at 13,200 × g under 4℃ for 20 min. The supernatant was transferred to another centrifuge tube and dry with nitrogen, re-dissolved with 100 μl of 80% methanol-H2O (v/v). The mixture was vortexed for 3 min and centrifuged at 13,200 × g under 4℃ for 20 min. For further LC-MS analysis, 3 μl of the supernatant was injected.
An ultrahigh-performance liquid chromatography-mass spectrometer (Waters, United States) was used for separation and detection. A Waters ACQUITY UPLC HSS T3 column (2.1 × 100 mm, 1.8 μm) was employed at 35℃ with a flow rate of 0.3 ml min^−1. The mobile phase consisted of acetonitrile (A) and water containing 0.1% FA (B). The following linear gradient was used: 0–4 min: 25–95% A; 4–4.5 min: 95–25% A; and 4.5–6 min: 25% A.
MRM was performed using QQQ-MS model Xevo TQ-S (Waters, United States). ESI was set as follows: capillary voltage, 3.0 kV; desolvation temperature, 450℃; and desolvation gas flow, 900 L/h (N2, purity 99.9%). The MRM transitions (precursor → product) of PG and polydatin (IS) were m/z 405.16 → m/z 243.18 and m/z 389.16 → m/z 227.20, respectively. The cone voltage of PG and polydatin were 80 and 84 V, respectively. The collision energy of PG and polydatin was 30 and 20 V, respectively.
Sixteen SD male rats (200 ± 20 g) were purchased from Beijing Vital River Laboratory Animal Technology Co., Ltd. (license number: SCXK (Beijing) 2016-0006). All rats were reared adaptively in a suitable environment for 1 week with freely available food and water. The temperature was maintained at 22℃, and the light was maintained for 12 h in a day.
The rats were randomly divided into two groups, viz., the control group (n = 8) and the combined group (n = 8). For the control group, 9 mg kg^−1 of PGI was injected into the tail vein of rats, whereas the same dosage of PGI was injected after 14 days of repeated GAO ingestion (51 mg kg^−1) for the combined group. The dosage administered to rats is in accordance with clinical dosage. After administration, blood samples were obtained from each rat at 0.03, 0.08, 0.16, 0.33, 0.5, 0.75, 1, 2, 3, 4, and 6 h. The blood sample was centrifuged at 6,600 × g under 4℃ for 10 min, and the supernatant was stored at −80℃ for further analysis.
Pharmacokinetic parameters were calculated under a noncompartmental model using Drug and Statistics 1.0 (DAS 1.0) software.

[3] = Stability of PG in rat blank plasma (method validation); assay type: in vitro ADME; parameters: unit not given here; settings: n = 6
Experimental: UPLC-MS/MS method validation was performed according to the FDA bioanalytical method validation guidance. The method was validated in terms of linearity, accuracy, precision, extraction recovery, matrix effect, and stability.
The result of specificity is shown in Supplementary Figure S12. The RTs of PG and polydatin were 1.47 and 1.70 min, respectively. Their chromatographic peaks were in good shape, and there was no interference from other endogenous substances. The regression equation of PG was y = 0.584781x − 0.47063, and the r ^2 and range of the linear were 0.9929 and 0.001–40 μg mL^−1, respectively. LLOQ was 0.5 ng mL^−1. The RSD of the intraday and interday precision was less than 15%, and the accuracy was between 80% and 120% (Supplementary Table S11). […] The stability of PG was less than 12.83% (Supplementary Table S13 ). It was shown that the established method complies with the relevant regulations of pharmacokinetics.

[4] = after 14 days repeated GAO, p < 0.05
[5] = Combined group: PGI 9 mg kg−1 tail vein after 14 days of repeated GAO 51 mg kg−1, rats
[6] = Control group: PGI 9 mg kg−1 tail vein, rats

In the case of `OC[C@H]1O[C@@H](Oc2cc(/C=C/c3cc(O)cc(O)c3)ccc2O)[C@H](O)[C@@H](O)[C@@H]1O` [PG, Piceatannol-3′-O-β-D-glucopyranoside], the “contribution of UGT1A1 to metabolism of PG” value (UGT1A1) is listed as “contributed little or no participation”, the “excretion of the prototype of PG” value ([1]; 40.0 mg kg−1 PG, tail vein and intragastric administration, ref Xu) is listed as “mainly excreted through urine” and the distribution ([1]; ref Chai, 2019, Xu) is listed as “widely distributed”. The elimination rate ([1]; ref Chai, 2019, Xu) was “fast elimination rate”, the excretion ([1]; ref Chai, 2019, Xu) was “mainly excreted by urine” and the kinetics ([1]; ref Chai, 2019, Xu) was “linear kinetics”. For the same molecule, the “metabolism of PG by UGT1A9” value (UGT1A9) was “mainly metabolized by UGT1A9”, the “contribution of UGT2B7 to metabolism of PG” value (UGT2B7) was “contributed little or no participation” and the “change of AUC 0-t of PG, combined group vs control” value [2, 4] was “significantly increased”. For the same molecule, the “change of AUC 0-∞ of PG, combined group vs control” value [2, 4] was “significantly increased”, the “change of T1/2 of PG, combined group vs control” value [2, 4] was “prolonged” and the “change of clearance of PG, combined group vs control” value [2, 4] was “significantly decreased”. It also gave a clearance [2, 5] of 30.4 mL/min/kg, a clearance [2, 6] of 46.2 mL/min/kg and an AUC(0-inf) [2, 5] of 5010 ± 686 ng·h/mL. It also gave an AUC(0-t) [2, 5] of 4900 ± 606 ng·h/mL, a half-life [2, 5] of 104 ± 48.1 min and an AUC(0-inf) [2, 6] of 3320 ± 525 ng·h/mL. For the same molecule, the AUC(0-t) [2, 6] was 3310 ± 517 ng·h/mL, the half-life [2, 6] was 60.8 ± 24.5 min and the “Stability, Measured con.” value ([3]; 4h, Con. 0.005 μg/mL) was 111.33. The “Stability, Measured con.” value ([3]; 4h, Con. 5 μg/mL) was 117.12, the “Stability, Measured con.” value ([3]; 4h, Con. 30 μg/mL) was 98.21 and the “Stability, Measured con.” value ([3]; 24h, Con. 0.005 μg/mL) was 116.33. The “Stability, Measured con.” value ([3]; 24h, Con. 5 μg/mL) was 115.03, the “Stability, Measured con.” value ([3]; 24h, Con. 30 μg/mL) was 98.37 and the “Stability, Measured con.” value ([3]; 15 days, Con. 0.005 μg/mL) was 92.00. The “Stability, Measured con.” value ([3]; 15 days, Con. 5 μg/mL) was 100.78, the “Stability, Measured con.” value ([3]; 15 days, Con. 30 μg/mL) was 96.48 and the “Stability, Measured con.” value ([3]; Freeze-thaws stability (3 times), Con. 0.005 μg/mL) was 107.66. The “Stability, Measured con.” value ([3]; Freeze-thaws stability (3 times), Con. 5 μg/mL) was 104.58 and the “Stability, Measured con.” value ([3]; Freeze-thaws stability (3 times), Con. 30 μg/mL) was 105.11.
